Assay results as given in the NIST ThermoML archive (doi:10.1021/je900482x).
± gives the expanded uncertainty stated by the source.

Experiment: isobaric coefficient of expansion
Settings: Liquid, Microcalorimeter

CCn1cc[n+](C)c1.F[B-](F)(F)F [1-ethyl-3-methylimidazolium tetrafluoroborate]
isobaric coefficient of expansion
Settings	5000 kPa	10000 kPa	15000 kPa	20000 kPa	25000 kPa	30000 kPa	35000 kPa	40000 kPa	45000 kPa	50000 kPa
278.15 K	0.000613 ± 1.5e-05 1/K	0.000605 ± 1.5e-05 1/K	0.000596 ± 1.5e-05 1/K	0.000591 ± 1.4e-05 1/K	0.000585 ± 1.4e-05 1/K	0.00058 ± 1.4e-05 1/K	0.000574 ± 1.4e-05 1/K	0.000567 ± 1.4e-05 1/K	0.00056 ± 1.4e-05 1/K	0.000555 ± 1.4e-05 1/K
288.15 K	0.000614 ± 1.5e-05 1/K	0.000602 ± 1.5e-05 1/K	0.000591 ± 1.4e-05 1/K	0.000587 ± 1.4e-05 1/K	0.000581 ± 1.4e-05 1/K	0.000574 ± 1.4e-05 1/K	0.000569 ± 1.4e-05 1/K	0.000561 ± 1.4e-05 1/K	0.000556 ± 1.4e-05 1/K	0.000554 ± 1.4e-05 1/K
298.15 K	0.000601 ± 1.5e-05 1/K	0.000596 ± 1.5e-05 1/K	0.000587 ± 1.4e-05 1/K	0.00058 ± 1.4e-05 1/K	0.000575 ± 1.4e-05 1/K	0.000568 ± 1.4e-05 1/K	0.000561 ± 1.4e-05 1/K	0.000554 ± 1.4e-05 1/K	0.000549 ± 1.3e-05 1/K	0.000545 ± 1.3e-05 1/K
308.15 K	0.000597 ± 1.5e-05 1/K	0.000589 ± 1.4e-05 1/K	0.000581 ± 1.4e-05 1/K	0.000573 ± 1.4e-05 1/K	0.000566 ± 1.4e-05 1/K	0.000561 ± 1.4e-05 1/K	0.000554 ± 1.4e-05 1/K	0.00055 ± 1.3e-05 1/K	0.000542 ± 1.3e-05 1/K	0.000537 ± 1.3e-05 1/K
318.15 K	0.000589 ± 1.4e-05 1/K	0.000585 ± 1.4e-05 1/K	0.000576 ± 1.4e-05 1/K	0.000569 ± 1.4e-05 1/K	0.000563 ± 1.4e-05 1/K	0.000556 ± 1.4e-05 1/K	0.00055 ± 1.3e-05 1/K	0.000544 ± 1.3e-05 1/K	0.000537 ± 1.3e-05 1/K	0.000532 ± 1.3e-05 1/K
328.15 K	0.000585 ± 1.4e-05 1/K	0.000578 ± 1.4e-05 1/K	0.000573 ± 1.4e-05 1/K	0.000566 ± 1.4e-05 1/K	0.000557 ± 1.4e-05 1/K	0.00055 ± 1.3e-05 1/K	0.000544 ± 1.3e-05 1/K	0.000537 ± 1.3e-05 1/K	0.000533 ± 1.3e-05 1/K	0.000528 ± 1.3e-05 1/K
338.15 K	0.000582 ± 1.4e-05 1/K	0.000574 ± 1.4e-05 1/K	0.000569 ± 1.4e-05 1/K	0.00056 ± 1.4e-05 1/K	0.000553 ± 1.4e-05 1/K	0.000549 ± 1.3e-05 1/K	0.00054 ± 1.3e-05 1/K	0.000534 ± 1.3e-05 1/K	0.000529 ± 1.3e-05 1/K	0.000525 ± 1.3e-05 1/K
348.15 K	0.000579 ± 1.4e-05 1/K	0.000574 ± 1.4e-05 1/K	0.000566 ± 1.4e-05 1/K	0.000562 ± 1.4e-05 1/K	0.000554 ± 1.4e-05 1/K	0.000546 ± 1.3e-05 1/K	0.00054 ± 1.3e-05 1/K	0.000533 ± 1.3e-05 1/K	0.000527 ± 1.3e-05 1/K	0.000521 ± 1.3e-05 1/K

CCCCCCn1cc[n+](C)c1.F[B-](F)(F)F [1-hexyl-3-methylimidazolium tetrafluoroborate]
isobaric coefficient of expansion
Settings	5000 kPa	10000 kPa	15000 kPa	20000 kPa	25000 kPa	30000 kPa	35000 kPa	40000 kPa	45000 kPa	50000 kPa
278.15 K	0.000621 ± 1.5e-05 1/K	0.000613 ± 1.5e-05 1/K	0.000605 ± 1.5e-05 1/K	0.000598 ± 1.5e-05 1/K	0.00059 ± 1.4e-05 1/K	0.000584 ± 1.4e-05 1/K	0.000576 ± 1.4e-05 1/K	0.000572 ± 1.4e-05 1/K	0.000562 ± 1.4e-05 1/K	0.000558 ± 1.4e-05 1/K
288.15 K	0.000616 ± 1.5e-05 1/K	0.000606 ± 1.5e-05 1/K	0.0006 ± 1.5e-05 1/K	0.000593 ± 1.5e-05 1/K	0.000586 ± 1.4e-05 1/K	0.000579 ± 1.4e-05 1/K	0.000572 ± 1.4e-05 1/K	0.000565 ± 1.4e-05 1/K	0.000558 ± 1.4e-05 1/K	0.000555 ± 1.4e-05 1/K
298.15 K	0.00061 ± 1.5e-05 1/K	0.000603 ± 1.5e-05 1/K	0.000595 ± 1.5e-05 1/K	0.000586 ± 1.4e-05 1/K	0.00058 ± 1.4e-05 1/K	0.000573 ± 1.4e-05 1/K	0.000564 ± 1.4e-05 1/K	0.000558 ± 1.4e-05 1/K	0.000552 ± 1.4e-05 1/K	0.000547 ± 1.3e-05 1/K
308.15 K	0.000605 ± 1.5e-05 1/K	0.000596 ± 1.5e-05 1/K	0.000589 ± 1.4e-05 1/K	0.000579 ± 1.4e-05 1/K	0.000572 ± 1.4e-05 1/K	0.000565 ± 1.4e-05 1/K	0.00056 ± 1.4e-05 1/K	0.000553 ± 1.4e-05 1/K	0.000545 ± 1.3e-05 1/K	0.000541 ± 1.3e-05 1/K
318.15 K	0.000599 ± 1.5e-05 1/K	0.000594 ± 1.5e-05 1/K	0.000585 ± 1.4e-05 1/K	0.000573 ± 1.4e-05 1/K	0.000566 ± 1.4e-05 1/K	0.00056 ± 1.4e-05 1/K	0.000554 ± 1.4e-05 1/K	0.000545 ± 1.3e-05 1/K	0.000537 ± 1.3e-05 1/K	0.000532 ± 1.3e-05 1/K
328.15 K	0.000594 ± 1.5e-05 1/K	0.000587 ± 1.4e-05 1/K	0.00058 ± 1.4e-05 1/K	0.000572 ± 1.4e-05 1/K	0.000562 ± 1.4e-05 1/K	0.000555 ± 1.4e-05 1/K	0.000549 ± 1.3e-05 1/K	0.00054 ± 1.3e-05 1/K	0.000536 ± 1.3e-05 1/K	0.000531 ± 1.3e-05 1/K
338.15 K	0.000591 ± 1.4e-05 1/K	0.000584 ± 1.4e-05 1/K	0.000575 ± 1.4e-05 1/K	0.000567 ± 1.4e-05 1/K	0.000558 ± 1.4e-05 1/K	0.000553 ± 1.4e-05 1/K	0.000544 ± 1.3e-05 1/K	0.000538 ± 1.3e-05 1/K	0.000532 ± 1.3e-05 1/K	0.000528 ± 1.3e-05 1/K
348.15 K	0.000588 ± 1.4e-05 1/K	0.000582 ± 1.4e-05 1/K	0.000572 ± 1.4e-05 1/K	0.000563 ± 1.4e-05 1/K	0.000555 ± 1.4e-05 1/K	0.000548 ± 1.3e-05 1/K	0.000543 ± 1.3e-05 1/K	0.000535 ± 1.3e-05 1/K	0.000529 ± 1.3e-05 1/K	0.000522 ± 1.3e-05 1/K

CCCCCCCC[n+]1ccn(C)c1.F[B-](F)(F)F [1-methyl-3-octylimidazolium tetrafluoroborate]
isobaric coefficient of expansion
Settings	5000 kPa	10000 kPa	15000 kPa	20000 kPa	25000 kPa	30000 kPa	35000 kPa	40000 kPa	45000 kPa	50000 kPa
278.15 K	0.000621 ± 1.2e-05 1/K	0.000613 ± 1.2e-05 1/K	0.000605 ± 1.2e-05 1/K	0.000598 ± 1.2e-05 1/K	0.00059 ± 1.2e-05 1/K	0.000584 ± 1.2e-05 1/K	0.000576 ± 1.2e-05 1/K	0.000572 ± 1.1e-05 1/K	0.000562 ± 1.1e-05 1/K	0.000558 ± 1.1e-05 1/K
288.15 K	0.000616 ± 1.2e-05 1/K	0.000606 ± 1.2e-05 1/K	0.0006 ± 1.2e-05 1/K	0.000593 ± 1.2e-05 1/K	0.000586 ± 1.2e-05 1/K	0.000579 ± 1.2e-05 1/K	0.000572 ± 1.1e-05 1/K	0.000565 ± 1.1e-05 1/K	0.000558 ± 1.1e-05 1/K	0.000555 ± 1.1e-05 1/K
298.15 K	0.00061 ± 1.2e-05 1/K	0.000603 ± 1.2e-05 1/K	0.000595 ± 1.2e-05 1/K	0.000586 ± 1.2e-05 1/K	0.00058 ± 1.2e-05 1/K	0.000573 ± 1.1e-05 1/K	0.000564 ± 1.1e-05 1/K	0.000558 ± 1.1e-05 1/K	0.000552 ± 1.1e-05 1/K	0.000547 ± 1.1e-05 1/K
308.15 K	0.000605 ± 1.2e-05 1/K	0.000596 ± 1.2e-05 1/K	0.000589 ± 1.2e-05 1/K	0.000579 ± 1.2e-05 1/K	0.000572 ± 1.1e-05 1/K	0.000565 ± 1.1e-05 1/K	0.00056 ± 1.1e-05 1/K	0.000553 ± 1.1e-05 1/K	0.000545 ± 1.1e-05 1/K	0.000541 ± 1.1e-05 1/K
318.15 K	0.000599 ± 1.2e-05 1/K	0.000594 ± 1.2e-05 1/K	0.000585 ± 1.2e-05 1/K	0.000573 ± 1.1e-05 1/K	0.000566 ± 1.1e-05 1/K	0.00056 ± 1.1e-05 1/K	0.000554 ± 1.1e-05 1/K	0.000545 ± 1.1e-05 1/K	0.000537 ± 1.1e-05 1/K	0.000532 ± 1.1e-05 1/K
328.15 K	0.000594 ± 1.2e-05 1/K	0.000587 ± 1.2e-05 1/K	0.00058 ± 1.2e-05 1/K	0.000572 ± 1.1e-05 1/K	0.000562 ± 1.1e-05 1/K	0.000555 ± 1.1e-05 1/K	0.000549 ± 1.1e-05 1/K	0.00054 ± 1.1e-05 1/K	0.000536 ± 1.1e-05 1/K	0.000531 ± 1.1e-05 1/K
338.15 K	0.000591 ± 1.2e-05 1/K	0.000584 ± 1.2e-05 1/K	0.000575 ± 1.2e-05 1/K	0.000567 ± 1.1e-05 1/K	0.000558 ± 1.1e-05 1/K	0.000553 ± 1.1e-05 1/K	0.000544 ± 1.1e-05 1/K	0.000538 ± 1.1e-05 1/K	0.000532 ± 1.1e-05 1/K	0.000528 ± 1.1e-05 1/K
348.15 K	0.000588 ± 1.2e-05 1/K	0.000582 ± 1.2e-05 1/K	0.000572 ± 1.1e-05 1/K	0.000563 ± 1.1e-05 1/K	0.000555 ± 1.1e-05 1/K	0.000548 ± 1.1e-05 1/K	0.000543 ± 1.1e-05 1/K	0.000535 ± 1.1e-05 1/K	0.000529 ± 1.1e-05 1/K	0.000522 ± 1e-05 1/K
